Like-named read-outs stand apart in the source and are kept apart here.
Assays:
P. falciparum 3D7 [1] = system: P. falciparum 3D7; set-up: method as in ChEMBL-NTD; settings: ref ChEMBL-NTD, cited from earlier work
P. falciparum 3D7 [2] = experiment: DAPI stain fluorescent high content imaging assay, P. falciparum 3D7 (confirmatory screen, Avery); settings: Plasmodium falciparum; for EC50: 3D7, read-out: EC50_nM; for inhibition of growth at 5 µM: 3D7, read-out: percent_inh @ 5 uM
[3] = values follow the order of the source (GNF; GSK; StJude)
[4] = original screening data, source (GSK, GNF, StJude), several values separated by ';' in order of sources

SMILES | EC50 (P. falciparum 3D7 [2]) [nM] | inhibition of growth at 5 µM (P. falciparum 3D7 [2]) [%] | other results
COc1ccc(Br)cc1C1Nc2ccc3ccccc3c2C2=C1C(=O)CC(c1ccccc1)C2 (stereo not shown) [MMV020885] | 180 | 95 | EC50 (P. falciparum 3D7 [1]; source GSK (TCMDC id)): 590 nM
Cc1ccc(-c2nc3ccccc3o2)cc1NCc1cc(Cc2ccccc2)ccc1O [MMV020912] | – | 64 | EC50 (P. falciparum 3D7 [1]; [3]): 1030 nM
CCC(=O)Nc1nnc(Cc2ccc(OC)c(OC)c2)s1 [MMV020942] | – | 47 | EC50 (P. falciparum 3D7 [1]; source GSK (TCMDC ids)): 910 nM
COc1cc(SC)ccc1C(=O)N1CCCC(C)C1 (stereo not shown) [MMV056726] | 4000 | – | EC50 (P. falciparum 3D7 [1]; [4]): 9810 nM; inhibition of growth at 2 µM (P. falciparum 3D7 [2]; 3D7, read-out: percent_inh @ 2 uM): 45%
CN(C)c1ccc(N=Cc2ccc(N3CCOCC3)cc2)cc1 [MMV073843] | – | 96 | EC50 (P. falciparum 3D7 [1]; [3]): 175 nM
COc1cc2c(cc1OC)C1=NNC(=O)C1=NC(C)(C)C2 [MMV084940] | 1040 | – | EC50 (P. falciparum 3D7 [1]; [4]): 1580 nM
COc1ccccc1N=C1C(=O)c2ccccc2C(O)=C1N1CCCCC1 [MMV085203] | 5.3 | 98 | EC50 (P. falciparum 3D7 [1]; source GNF (GNF-Pf id)): 28 nM
CCOc1ccc(-n2cc(-c3ccccc3)c3c(SCc4cc(C)ccc4C)ncnc32)cc1 [MMV085471] | 1700 | 97 | EC50 (P. falciparum 3D7 [1]; source GNF (GNF-Pf ids)): 2010 nM
CCCCCC(=O)N1c2ccccc2N=C2CC(c3ccc(OC)c(OC)c3)CC(O)=C2C1c1ccc(C(F)(F)F)cc1 (stereo not shown) [MMV085583] | 237 | 100 | EC50 (P. falciparum 3D7 [1]; source GNF (GNF-Pf id)): 107 nM
Cc1ccc(C(=O)c2oc3ccc4c(C)cc(=O)oc4c3c2C)cc1 [MMV086103] | 906 | 96 | EC50 (P. falciparum 3D7 [1]; [3]): 1030 nM
COc1cc(CNCCc2ccc(Cl)cc2)cc(OC)c1O [MMV128432] | 1790 | 97 | EC50 (P. falciparum 3D7 [1]; [3]): 6890 nM
CC(C)(C)c1ccc(C(=O)Nc2nc3ccccc3s2)cc1 [MMV142383] | – | 81 | EC50 (P. falciparum 3D7 [1]; source StJude): 15000 nM
CCOC(=O)c1cnc2c(CC)cccc2c1O [MMV498479] | – | 87 | EC50 (P. falciparum 3D7 [1]; source GNF (GNF-Pf ids)): 1660 nM
CCN(CC)CCCNc1ccnc2cc3ccccc3cc12 [MMV665783] | – | 90 | EC50 (P. falciparum 3D7 [1]; source GNF (GNF-Pf ids)): 33.8 nM
CC(C)(C)c1ccc(O)c(CNC2CCCCC2)c1 [MMV665785] | 161 | 96 | EC50 (P. falciparum 3D7 [1]; source GNF (GNF-Pf id)): 250 nM; EC50 (P. falciparum 3D7 [1]; source GSK (TCMDC id)): 264 nM
O=c1cc(NC2CCN(CCCc3ccccc3)CC2)c2cc(Cl)ccc2o1 [MMV665786] | 846 | 97 | EC50 (P. falciparum 3D7 [1]; source GNF (GNF-Pf ids)): 408 nM
CC(NCc1ccccc1)c1cc(Cl)ccc1O (stereo not shown) [MMV665789] | 603 | 95 | EC50 (P. falciparum 3D7 [1]; source GNF): 592 nM
FC(F)(F)c1cccc(Nc2nc3ccccc3nc2Nc2cccc(C(F)(F)F)c2)c1 [MMV665794] | 313 | 99 | EC50 (P. falciparum 3D7 [1]; source GSK (TCMDC ids)): 137 nM
CCOc1cc(Br)c(C(C)NC(=O)c2cccc(OC)c2)cc1OCC (stereo not shown) [MMV665796] | 1430 | 96 | EC50 (P. falciparum 3D7 [1]; source GSK): 168 nM
CCCCOC(=O)c1ccc(Nc2cc(C)nc3ccc(OC)cc23)cc1 [MMV665797] | 584 | 99 | EC50 (P. falciparum 3D7 [1]; source GSK (TCMDC ids)): 640 nM
FC(F)(F)c1cccc(Nc2nc(-c3ccccc3)nc3ncccc23)c1 [MMV665798] | – | 74 | EC50 (P. falciparum 3D7 [1]; source GSK): 802 nM
COc1ccc(C(=O)Nc2ccc(Cl)cc2C(=O)Nc2ccncc2)cc1 [MMV665799] | – | 93 | EC50 (P. falciparum 3D7 [1]; source GSK): 822 nM
CCOc1cc(Cl)c(C(C)NC(=O)c2ccccc2)cc1OCC (stereo not shown) [MMV665800] | 1370 | 96 | EC50 (P. falciparum 3D7 [1]; source GSK): 875 nM
CCOc1cc(Cl)c(C(C)NC(=O)c2cccc(OC)c2)cc1OCC (stereo not shown) [MMV665803] | 728 | 98 | EC50 (P. falciparum 3D7 [1]; source GSK): 956 nM
CCOc1ccc(-c2nonc2NC(=O)c2cccc(C)c2)cc1OCC [MMV665805] | 117 | 86 | EC50 (P. falciparum 3D7 [1]; source StJude): 61.9 nM

SMILES | EC50 (P. falciparum 3D7 [2]) [nM] | inhibition of growth at 5 µM (P. falciparum 3D7 [2]) [%] | other results
Cc1c(C)n(CC(O)CNC2CCCCC2C)c2ccccc12 (stereo not shown) [MMV665806] | 769 | 96 | EC50 (P. falciparum 3D7 [1]; [4]): 527 nM
O=C(Nc1cccc(C(F)(F)F)c1)c1cc(Cl)ccc1O [MMV665807] | – | 93 | EC50 (P. falciparum 3D7 [1]; source StJude): 973 nM
Oc1ccc(Br)cc1CN1CCN(Cc2ccc(Cl)cc2)CC1 [MMV665809] | – | 97 | EC50 (P. falciparum 3D7 [1]; [3]): 1480 nM
CCc1ccc(CNCC(O)c2ccccc2)cc1 (stereo not shown) [MMV665812] | – | 97 | EC50 (P. falciparum 3D7 [1]; source StJude): 2170 nM
CCOC(=O)c1cnc2ccc(OC)cc2c1NCc1ccccc1 [MMV665813] | – | 87 | EC50 (P. falciparum 3D7 [1]; [3]): 2770 nM
CC(C)(C)CC(C)(C)NCC(O)COc1ccc2c(c1)CCC2 (stereo not shown) [MMV665817] | – | 78 | EC50 (P. falciparum 3D7 [1]; source StJude): 4420 nM
COc1ccc2c(=O)cc(C(Cl)(Cl)Cl)oc2c1 [MMV665820] | 520 | 94 | EC50 (P. falciparum 3D7 [1]; source StJude (SJ id)): 15000 nM
Cn1c(C(=O)c2cccc3ccccc23)nc2ccccc21 [MMV665824] | – | 89 | EC50 (P. falciparum 3D7 [1]; source GNF): 6.92 nM
COc1cccc(NC(=O)Cn2c(C)c(C#N)c3ccccc32)c1 [MMV665826] | 1090 | 95 | EC50 (P. falciparum 3D7 [1]; source GNF): 79.6 nM; EC50 (P. falciparum 3D7 [1]; source GSK): 878 nM
CCOC(=O)c1cn(CC)c2cc(N3CCCCC3)c(F)cc2c1=O [MMV665827] | 119 | 100 | EC50 (P. falciparum 3D7 [1]; source GNF (GNF-Pf id)): 166 nM; EC50 (P. falciparum 3D7 [1]; source GSK (TCMDC id)): 125 nM
CC1CC2=C(CC1CNCCCN(C)C)C(C)(C)CCC2 (stereo not shown) [MMV665830] | 1000 | 98 | EC50 (P. falciparum 3D7 [1]; [3]): 250 nM
CCOC(=O)c1c(NC(=O)c2ccccc2)sc2c(O)c(CN(CC)CC)ccc12 [MMV665831] | 205 | 96 | EC50 (P. falciparum 3D7 [1]; source GNF (GNF-Pf id)): 267 nM; EC50 (P. falciparum 3D7 [1]; source GSK (TCMDC id)): 969 nM
O=C(Nc1ccc(-c2nc3ccccc3[nH]2)cc1)c1ccc(Cl)c(Cl)c1 [MMV665840] | 838 | 97 | EC50 (P. falciparum 3D7 [1]; [3]): 523 nM
CCCc1cc(O)c2c3c(c(=O)oc2c1)CN(C)CC3 [MMV665841] | 146 | 97 | EC50 (P. falciparum 3D7 [1]; source GNF (GNF-Pf id)): 554 nM; EC50 (P. falciparum 3D7 [1]; source GSK (TCMDC id)): 873 nM
Oc1c2c(nc3ccccc13)CCCC2 [MMV665843] | – | 82 | EC50 (P. falciparum 3D7 [1]; [4]): 628 nM
Oc1ccc(Cl)cc1CNc1nc2ccccc2[nH]1 [MMV665850] | – | 95 | EC50 (P. falciparum 3D7 [1]; source GNF): 921 nM
O=C(Nc1ccc(Cl)c(Cl)c1)Nc1ccc(Cl)c(Cl)c1 [MMV665852] | 1160 | 96 | EC50 (P. falciparum 3D7 [1]; [3]): 1030 nM
CCOc1c(Cl)cc(CNC(C)C(O)c2ccccc2)cc1OC (stereo not shown) [MMV665857] | – | 98 | EC50 (P. falciparum 3D7 [1]; source GNF): 1650 nM
CCCCNc1nc(NC(C)(C)C)nc(NC(C)(C)C)n1 [MMV665864] | 706 | 98 | EC50 (P. falciparum 3D7 [1]; [3]): 2160 nM
Cc1cc(Nc2ccc(C)c(Cl)c2)n2nc(C(F)(F)F)nc2n1 [MMV665874] | 6.71 | 98 | EC50 (P. falciparum 3D7 [1]; source GSK (TCMDC id)): 15.8 nM
Cn1c(=O)n(C)c2cc(CNCCNc3ccnc4cc(Cl)ccc34)ccc21 [MMV665875] | 545 | 90 | EC50 (P. falciparum 3D7 [1]; [3]): 140 nM
CCC(c1ccccc1)c1nn2c(-c3cccs3)nnc2s1 (stereo not shown) [MMV665876] | 259 | 99 | EC50 (P. falciparum 3D7 [1]; source GSK (TCMDC id)): 167 nM
COc1cccc(NC(=O)[C@H](C(C)C)n2c(=O)[nH]c3ccccc3c2=O)c1 [MMV665878] | 139 | 99 | EC50 (P. falciparum 3D7 [1]; source GSK (TCMDC id)): 266 nM
CC(C)(C)C(=O)Nc1ccc(C(=O)Nc2cccc(-c3nc4ccccc4[nH]3)c2)cc1 [MMV665879] | – | 91 | EC50 (P. falciparum 3D7 [1]; [4]): 282 nM

Source: article PMC3684613 (PLoS ONE, 2013)
